# Source: PMC10986179, “PCC0208057 as a small molecule inhibitor of TRPC6 in the treatment of prostate cancer” (Frontiers in Pharmacology, 2024)
# pIC50: −log10 of the molar value.
# Biological target: T1, TRPC6 (transient receptor potential canonical 6) (Homo sapiens, UniProt Q9Y210)
# T1 sequence (Q9Y210 1-931): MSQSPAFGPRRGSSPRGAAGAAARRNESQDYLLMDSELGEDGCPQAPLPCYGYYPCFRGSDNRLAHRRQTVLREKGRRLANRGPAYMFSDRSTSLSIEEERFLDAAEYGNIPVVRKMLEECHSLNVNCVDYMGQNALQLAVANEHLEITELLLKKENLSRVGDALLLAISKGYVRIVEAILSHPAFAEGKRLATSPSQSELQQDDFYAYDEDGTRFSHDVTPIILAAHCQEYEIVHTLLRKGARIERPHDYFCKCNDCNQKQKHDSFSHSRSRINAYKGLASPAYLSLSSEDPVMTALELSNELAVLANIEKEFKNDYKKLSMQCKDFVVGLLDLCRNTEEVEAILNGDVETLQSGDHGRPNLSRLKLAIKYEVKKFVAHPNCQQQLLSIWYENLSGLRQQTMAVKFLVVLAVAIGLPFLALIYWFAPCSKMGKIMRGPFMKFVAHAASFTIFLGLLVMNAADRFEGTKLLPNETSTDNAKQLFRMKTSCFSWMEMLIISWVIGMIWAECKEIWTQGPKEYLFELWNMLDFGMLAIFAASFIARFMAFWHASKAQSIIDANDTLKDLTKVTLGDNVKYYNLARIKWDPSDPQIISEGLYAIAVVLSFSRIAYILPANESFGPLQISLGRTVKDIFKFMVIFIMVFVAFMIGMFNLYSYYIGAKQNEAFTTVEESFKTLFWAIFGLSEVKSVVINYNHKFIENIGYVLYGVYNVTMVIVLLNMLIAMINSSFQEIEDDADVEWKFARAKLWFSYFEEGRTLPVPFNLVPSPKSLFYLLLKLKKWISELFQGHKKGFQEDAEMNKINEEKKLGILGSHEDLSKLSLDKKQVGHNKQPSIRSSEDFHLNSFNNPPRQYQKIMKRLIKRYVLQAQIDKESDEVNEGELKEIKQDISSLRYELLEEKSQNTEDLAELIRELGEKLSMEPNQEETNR
# Experiment: Fluo-4 Ca2+ assay in TRPC6-HEK293 cells; also electrophysiology of GSK1702934A-evoked TRPC6 currents
# Format: cell-based
structure (smiles),measurement,value
COc1cccc2sc(N(CCN3CCCC3)C(=O)c3ccc4c(c3)OCO4)nc12 [PCC0208057],pIC50,5.61
